± gives the expanded uncertainty stated by the source.
Settings: 298.15 K; 101.33 kPa; Liquid; Vibrating tube method

Row | Structure (SMILES) | mass density [kg/m3]
1 | CN(C)C=O [dimethylformamide] | 943.875 ± 0.25
2 | CC(=O)N(C)C [N,N-dimethylethanamide] | 936.214 ± 0.48

Other lines, results leading:

Row | mass density [kg/m3] | Structure (SMILES)
3 | 655.248 ± 0.28 | CCCCCC [hexane]
4 | 679.627 ± 0.27 | CCCCCCC [heptane]
5 | 714.064 ± 0.41 | CCCCCCCCC [nonane]
6 | 698.636 ± 0.41 | CCCCCCCC [octane]

Reference: the NIST ThermoML archive (doi:10.1021/je050428j)
